What was measured:
Human albumin = target: T1, Human albumin (Homo sapiens, UniProt P02768); test: Fluorescence polarization albumin binding assay, purified human albumin
T1 construct: purchased Sigma-Aldrich A1653
Method: Forty-five microlitre of the dilutions were added to 15 μl of fluorescent peptide (100 nM) in black 96-well half area microtitre plates. […] The final concentration of fluorescent peptide was 25 nM in all wells. Fluorescence anisotropy was measured with an Infinite M200Pro plate reader (Tecan) using an excitation filter at 485 nm and an emission filter at 535 nm. Dissociation constant (KD) were determined by nonlinear regression analysis of anisotropy versus the total concentration of proteins [P]T using the following equation: […]
A is the experimental fluorescence anisotropy. Af and Ab are the fluorescence anisotropy for the free and the fully bound fluorescent ligand, respectively. [L]T and [P]T represent the total fluorescent ligand and protein concentration, respectively. KD is the dissociation constant for the binding equilibrium. Values were calculated with Prism 5 (GraphPad software).

[1] = target: insulin detemir (Homo sapiens) (UniProt P01308); settings: cited from earlier work
Chain of insulin detemir (Homo sapiens) (F8WCM5 25-53, chain 1 of 2): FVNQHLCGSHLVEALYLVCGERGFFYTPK
Chain of insulin detemir (Homo sapiens) (P01308 90-110, chain 2 of 2): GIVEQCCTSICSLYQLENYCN

albumin = settings: cited from earlier work
[2] = applied intravenously; cited from earlier work

Substance: (F)-EYEKpalmEYE [tag]
- improvement of Kd compared to the starting peptide-palmitoyl tag (Human albumin): 27 fold

Substance: albumin (from UniProt P02768)
- Kd [1]: 4.2 µM

Substance: insulin degludec
- higher affinity for albumin than insulin detemir (albumin): 2.4 fold

Substance: oxytocin
- half-life [2]: 10 to 15 min
